Results taken from the supplement of paper PMC13380429.

Experiments:
Conditions in all cases: 72 h
[1] = tested on: U2OS; assay: drug sensitivity score (DSS) for viability; higher = more toxic; extreme values may be limits of the assay
[2] = tested on: Caco-2; assay: as above
[3] = tested on: Vero E6; assay: as above
[4] = tested on: HepG2; assay: as above
[5] = tested on: Calu-3; assay: as above
[6] = tested on: U2OS; assay: relative viability EC50 (midpoint between 100% and the lowest measured viability); higher = less toxic
[7] = tested on: Caco-2; assay: as above
[8] = tested on: Vero E6; assay: as above
[9] = tested on: HepG2; assay: as above
[10] = tested on: Calu-3; assay: as above
[11] = tested on: U2OS; assay: cell viability relative to DMSO; higher = less toxic
[12] = tested on: Caco-2; assay: as above
[13] = tested on: Vero E6; assay: as above
[14] = tested on: HepG2; assay: as above
[15] = tested on: Calu-3; assay: as above

Structure (SMILES) | drug sensitivity score [1] | drug sensitivity score [2] | drug sensitivity score [3] | drug sensitivity score [4] | drug sensitivity score [5] | relative viability EC50 [6] [µM] | relative viability EC50 [7] [µM] | relative viability EC50 [8] [µM] | relative viability EC50 [9] [µM] | relative viability EC50 [10] [µM] | cell viability ([11]; 1 nM) [%] | cell viability ([11]; 10 nM) [%] | cell viability ([11]; 100 nM) [%] | cell viability ([11]; 1000 nM) [%] | cell viability ([11]; 10000 nM) [%] | cell viability ([12]; 1 nM) [%] | cell viability ([12]; 10 nM) [%] | cell viability ([12]; 100 nM) [%] | cell viability ([12]; 1000 nM) [%] | cell viability ([12]; 10000 nM) [%] | cell viability ([13]; 1 nM) [%] | cell viability ([13]; 10 nM) [%] | cell viability ([13]; 100 nM) [%] | cell viability ([13]; 1000 nM) [%] | cell viability ([13]; 10000 nM) [%] | cell viability ([14]; 1 nM) [%] | cell viability ([14]; 10 nM) [%] | cell viability ([14]; 100 nM) [%] | cell viability ([14]; 1000 nM) [%] | cell viability ([14]; 10000 nM) [%] | cell viability ([15]; 1 nM) [%] | cell viability ([15]; 10 nM) [%] | cell viability ([15]; 100 nM) [%] | cell viability ([15]; 1000 nM) [%] | cell viability ([15]; 10000 nM) [%]
Cc1ncc(CO)c(C=O)c1O [pyridoxal] | 0 | 0 | 0 | 1.3 | 0 | > 10 | > 10 | > 10 | > 10 | > 10 | 98.6 | 95.7 | 103 | 103 | 99.9 | 114 | 104 | 104 | 112 | 92.1 | 102 | 92.6 | 96 | 94.4 | 102 | 91 | 81.7 | 102 | 94.1 | 80 | 105 | 91.4 | 99.9 | 99.7 | 118
N#CN1CCCC1 [pyrrolidine-1-carbonitrile] | 0 | 0 | 0 | 0 | 0 | > 10 | > 10 | > 10 | > 10 | > 10 | 90.3 | 98 | 97.9 | 104 | 107 | 103 | 94.7 | 95.4 | 95.9 | 110 | 99.6 | 99.2 | 98.2 | 95.3 | 105 | 90.6 | 91.1 | 94.4 | 95.2 | 101 | 97.6 | 104 | 108 | 107 | 97.9
Cc1cccc(-c2n[nH]cc2-c2ccc3ncccc3n2)n1 [repsox] | 0 | 0 | 1 | 0 | 0.7 | > 10 | > 10 | > 10 | > 10 | > 10 | 96 | 101 | 92.4 | 93.4 | 94.8 | 94 | 98.2 | 95 | 105 | 95 | 102 | 97.8 | 103 | 89.5 | 84.8 | 100 | 104 | 98.8 | 95.9 | 91 | 95.1 | 94.4 | 98.6 | 101 | 78.4
